Assay in all cases: DTP human tumour cell line panel, 48 h
The subject of assay [1] is 786-0 renal.
Assay [2] has as its system A549 NSCLC.
The test system of assay [3] is BT-549 breast.
Assay [4] deals with HS 578T breast.
Assay [5] concerns IGROV1 ovarian.
Assay [6] deals with OVCAR-5 ovarian.
For assay [7], the system named is RXF 393 renal.
In assay [8] the test system is SF-539 CNS.
For assay [9], the system named is SK-MEL-2 melanoma.
The test system of assay [10] is SK-MEL-5 melanoma.
Assay [11] has as its system UACC-257 melanoma.
The test system of assay [12] is DU-145 prostate.

For 14 compounds, TGI and GI50 results are on record in PubChem BioAssay (NCI).

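Protocol summary: plate cells (96-well), add compound at 5 concentrations, incubate 48 h, interpolate endpoints linearly. At the GI50, growth is halved. Definition used: TGI = concentration required for complete inhibition of growth.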

Consider `CC(=O)C1=C(N=[N+]=[N-])c2cccc3cccc(c23)C1=O`, for which the total growth inhibition concentration (TGI) (usually the concentration giving total growth inhibition) is 33.7 µM in assay [1]; more than 100 µM in [2]; 46.2 µM in assay [3]; 80.6 µM in assay [4]; 32.6 µM in assay [5]; 54.8 µM in [6]. In addition, the TGI in [7] was found to be 28 µM; in assay [8], 42 µM; in [9], 31.4 µM; in assay [10], 38.1 µM; in assay [11], 43.8 µM.
`CCOc1ccc2c(c1)/C(=C(\C(Cl)=C(Cl)Cl)[N+](=O)[O-])N2`: the TGI in [1], in assay [2], in assay [3], in assay [12], in assay [4] and in assay [6] was more than 100 µM in each case. Also, the TGI in assay [8], in [9] and in [11] was more than 100 µM in each case.
On to `COP(C)(=O)/C(Cc1ccccc1)=N\O` (stereo unspecified), for which the TGI in assay [2], in assay [12], in [4], in assay [5], in [6] and in assay [9] was more than 100 µM throughout. Besides, the TGI in assay [10] and in assay [11] was more than 100 µM in each case.
Take `CC[N+]1(C)CCC(O)(c2ccc(Cl)cc2)C(C(=O)c2ccc(Cl)cc2)C1` (stereo unspecified): the TGI in [12] was 34.4 µM; in assay [4] it was 38.3 µM; in assay [5] it was 47.9 µM; in [6], 33.1 µM; in assay [7] it was 27.4 µM; in [11] it was 61 µM.
Regarding `CN(C)CCNc1ccc([N+](=O)[O-])c2nc3ccccc3c(N)c12`, the TGI in assay [1] was more than 10 µM; in [2] it was 4.23 µM; in [12], more than 10 µM; in assay [4], 8.2 µM; in [5], 2.78 µM; in assay [6], more than 10 µM. Moreover, the total growth inhibition concentration (TGI) in assay [7] was 4.32 µM; in [8], 4.48 µM; in assay [9], 3.53 µM; in assay [10] it was 2.79 µM; in assay [11], more than 10 µM.
With `CC1C(c2ccc3c(c2)OCO3)c2cc3c(cc2OC1N1CCCC1)OCO3` (stereo unspecified), the TGI was more than 100 µM in assay [1]; more than 100 µM in [2]; more than 100 µM in assay [12]; 44.5 µM in assay [4]; more than 100 µM in assay [5]; more than 100 µM in [6]. For the same compound, the TGI in [8] was 50.9 µM; in assay [9], 90.4 µM; in assay [10], 47.2 µM; in assay [11], more than 100 µM.
For `C=C(C=O)c1c2c(nc3ccccc13)C(=O)c1ccccc1C2=O`, the TGI in [1] was more than 100 µM; in assay [3], 3.57 µM; in assay [12] it was 0.982 µM; in assay [4] it was 0.961 µM; in assay [5] it was 2.19 µM; in assay [6], 4.92 µM. The values for the TGI in [8] and in assay [10] were 0.605 µM and 0.339 µM, respectively.
In the case of `CC(=O)O[C@H]1CC[C@]2(C)[C@H]3CC[C@@H]4[C@H]5[C@H](C(C)C)CC[C@]5(C(=O)OCC(CO)(CO)N=C(N)N)CC[C@@]4(C)[C@]3(C)CC[C@H]2C1(C)C`, the GI50 (as a rule, the concentration at which growth is held to half of that of the control) is 1.71 µM in [2]; 1.7 µM in assay [12]; 2.05 µM in assay [4]; 1.67 µM in assay [6]; 1.83 µM in [8]; 1.82 µM in assay [11]. Besides, the TGI in assay [2] was 3.28 µM; in assay [12], 3.2 µM; in assay [4], 5.04 µM; in [6] it was 3.09 µM; in assay [8], 3.34 µM; in assay [11] it was 3.97 µM.
For `CCP(=O)(CC)C(Cl)(Cl)C(O)C(C)(C)C` (stereo unspecified), the TGI in [2], in [12], in assay [4], in assay [5], in [6] and in assay [9] was more than 100 µM in each case. In addition, the TGI in [10] and in assay [11] was more than 100 µM each time.
On to `CC(=O)OC1CC2CCC1(C)C2(C)C` (stereo unspecified), for which the TGI in [1], in assay [12], in assay [4], in assay [5], in [6] and in assay [7] was more than 100 µM in each case. In addition, the total growth inhibition concentration (TGI) in assay [8], in [9] and in [11] was more than 100 µM each time.
In the case of `O=C(N/N=C1\CCc2ccccc2C1)N/N=C1\CCc2ccccc2C1`, the TGI in [1], in assay [2], in assay [3], in [12], in [6] and in assay [7] was more than 10 µM in each case. In addition, the concentration for total growth inhibition (TGI) in assay [9] and in assay [11] was more than 10 µM in each case.
Consider `COC(=O)C1=Nc2c(C)nn(-c3ccccc3)c2N=C(c2ccc(C)cc2)C1`, for which the total growth inhibition concentration (TGI) in assay [1], in assay [2], in assay [3], in assay [12], in assay [4] and in assay [5] was more than 10 µM in each case. The total growth inhibition concentration (TGI) in [8], in assay [10] and in assay [11] was more than 10 µM in each case.
Consider `COc1cc(OC)c2c(c1OC)OCC(Cc1ccc(O)cc1)C2=O` (stereo unspecified), for which the total growth inhibition concentration (TGI) in assay [1], in assay [2], in [12], in assay [4], in [5] and in [6] was more than 25 µM throughout. Further, the TGI in [7], in [8], in assay [9], in [10] and in assay [11] was more than 25 µM each time.
For `COC(=O)CC1(CNC(=O)OCc2ccccc2)OCCO1`, the total growth inhibition concentration (TGI) in assay [1], in assay [2], in assay [3], in assay [12], in assay [5] and in assay [6] was more than 100 µM in each case. Moreover, the total growth inhibition concentration (TGI) in assay [7], in assay [8], in assay [9], in assay [10] and in [11] was more than 100 µM each time.
